Measured values: ChEMBL document CHEMBL3400024, “α-Adrenoceptor antagonistic and hypotensive properties of novel arylpiperazine derivatives of pyrrolidin-2-one” (Bioorg Med Chem, 2015)
Activity calls are given as the source filed them. No cut-off for these calls is given here.

How the values were obtained:
[1] = biological target: T1, Adrenergic receptor alpha-1 (Rattus norvegicus, UniProt P15823+P23944+P43140); assay: Displacement of [3H]prazosin from rat cerebral cortex alpha-1 adrenergic receptor by liquid scintillation counting analysis; type: tissue-based
T1 sequence (P15823 whole entry): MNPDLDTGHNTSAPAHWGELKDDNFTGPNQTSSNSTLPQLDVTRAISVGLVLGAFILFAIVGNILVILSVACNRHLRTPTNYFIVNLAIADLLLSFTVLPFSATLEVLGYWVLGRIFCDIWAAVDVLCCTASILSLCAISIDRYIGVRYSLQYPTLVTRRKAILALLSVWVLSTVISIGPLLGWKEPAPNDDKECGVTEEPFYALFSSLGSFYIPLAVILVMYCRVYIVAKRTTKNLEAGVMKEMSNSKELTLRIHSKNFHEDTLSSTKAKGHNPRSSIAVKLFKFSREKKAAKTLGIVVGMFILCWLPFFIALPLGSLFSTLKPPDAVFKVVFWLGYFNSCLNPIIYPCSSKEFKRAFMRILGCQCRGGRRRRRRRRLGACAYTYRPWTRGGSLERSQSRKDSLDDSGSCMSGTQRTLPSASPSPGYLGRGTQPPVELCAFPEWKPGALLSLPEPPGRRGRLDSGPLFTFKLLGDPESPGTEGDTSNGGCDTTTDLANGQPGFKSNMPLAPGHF
T1 sequence (P23944 whole entry): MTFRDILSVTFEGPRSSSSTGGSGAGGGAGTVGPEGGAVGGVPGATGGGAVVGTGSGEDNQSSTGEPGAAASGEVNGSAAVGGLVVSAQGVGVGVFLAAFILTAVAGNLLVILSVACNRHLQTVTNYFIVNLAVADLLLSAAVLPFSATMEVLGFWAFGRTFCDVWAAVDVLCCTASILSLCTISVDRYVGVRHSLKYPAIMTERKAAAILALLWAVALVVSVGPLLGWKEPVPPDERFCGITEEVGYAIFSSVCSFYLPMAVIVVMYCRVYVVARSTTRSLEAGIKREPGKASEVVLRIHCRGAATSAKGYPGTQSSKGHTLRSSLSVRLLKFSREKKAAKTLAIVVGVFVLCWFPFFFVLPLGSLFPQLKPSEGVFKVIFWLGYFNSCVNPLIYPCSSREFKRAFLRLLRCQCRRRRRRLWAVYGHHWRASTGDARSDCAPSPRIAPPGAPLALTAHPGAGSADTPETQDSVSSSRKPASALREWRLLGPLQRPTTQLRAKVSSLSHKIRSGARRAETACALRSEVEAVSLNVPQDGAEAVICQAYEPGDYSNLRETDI
T1 sequence (P43140 whole entry): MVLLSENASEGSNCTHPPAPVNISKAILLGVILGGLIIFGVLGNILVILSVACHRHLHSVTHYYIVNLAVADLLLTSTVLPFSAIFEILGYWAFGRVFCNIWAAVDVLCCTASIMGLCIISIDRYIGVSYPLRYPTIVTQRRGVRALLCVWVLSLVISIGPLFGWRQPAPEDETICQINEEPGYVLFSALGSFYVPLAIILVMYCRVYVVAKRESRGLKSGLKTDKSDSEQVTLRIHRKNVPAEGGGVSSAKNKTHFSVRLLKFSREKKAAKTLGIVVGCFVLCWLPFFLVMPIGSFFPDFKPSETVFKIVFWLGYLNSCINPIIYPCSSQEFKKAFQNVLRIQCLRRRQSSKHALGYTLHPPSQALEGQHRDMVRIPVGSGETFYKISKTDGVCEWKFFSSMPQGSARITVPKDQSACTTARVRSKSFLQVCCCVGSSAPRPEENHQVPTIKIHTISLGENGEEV

[2] = biological target: T2, Adrenergic receptor alpha-2 (Rattus norvegicus, UniProt P22086+P19328+P22909); assay: Displacement of [3H]clonidine from rat cerebral cortex alpha-2 adrenergic receptor by liquid scintillation counting analysis; type: tissue-based
T2 sequence (P22086 whole entry): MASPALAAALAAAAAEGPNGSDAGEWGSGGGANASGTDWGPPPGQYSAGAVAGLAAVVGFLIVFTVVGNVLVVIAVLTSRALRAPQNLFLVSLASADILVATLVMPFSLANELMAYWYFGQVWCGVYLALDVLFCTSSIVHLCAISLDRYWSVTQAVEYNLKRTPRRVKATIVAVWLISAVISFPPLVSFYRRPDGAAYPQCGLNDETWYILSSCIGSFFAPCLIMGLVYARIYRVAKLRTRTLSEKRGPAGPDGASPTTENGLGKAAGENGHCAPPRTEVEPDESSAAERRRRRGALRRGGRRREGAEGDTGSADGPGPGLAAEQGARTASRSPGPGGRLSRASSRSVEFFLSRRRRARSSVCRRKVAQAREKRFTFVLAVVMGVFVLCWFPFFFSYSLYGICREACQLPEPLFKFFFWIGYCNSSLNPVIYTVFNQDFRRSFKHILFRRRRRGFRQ
T2 sequence (P19328 whole entry): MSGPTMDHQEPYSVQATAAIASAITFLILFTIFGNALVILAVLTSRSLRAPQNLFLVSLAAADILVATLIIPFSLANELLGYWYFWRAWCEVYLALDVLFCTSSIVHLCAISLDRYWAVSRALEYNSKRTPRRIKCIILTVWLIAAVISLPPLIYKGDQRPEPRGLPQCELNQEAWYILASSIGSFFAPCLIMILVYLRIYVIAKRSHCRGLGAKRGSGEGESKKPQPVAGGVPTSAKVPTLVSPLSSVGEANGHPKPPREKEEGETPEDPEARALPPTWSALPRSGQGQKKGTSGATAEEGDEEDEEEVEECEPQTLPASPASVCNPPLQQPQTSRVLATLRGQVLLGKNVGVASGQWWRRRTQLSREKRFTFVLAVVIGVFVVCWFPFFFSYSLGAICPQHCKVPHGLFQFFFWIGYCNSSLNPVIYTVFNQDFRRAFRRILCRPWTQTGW
T2 sequence (P22909 whole entry): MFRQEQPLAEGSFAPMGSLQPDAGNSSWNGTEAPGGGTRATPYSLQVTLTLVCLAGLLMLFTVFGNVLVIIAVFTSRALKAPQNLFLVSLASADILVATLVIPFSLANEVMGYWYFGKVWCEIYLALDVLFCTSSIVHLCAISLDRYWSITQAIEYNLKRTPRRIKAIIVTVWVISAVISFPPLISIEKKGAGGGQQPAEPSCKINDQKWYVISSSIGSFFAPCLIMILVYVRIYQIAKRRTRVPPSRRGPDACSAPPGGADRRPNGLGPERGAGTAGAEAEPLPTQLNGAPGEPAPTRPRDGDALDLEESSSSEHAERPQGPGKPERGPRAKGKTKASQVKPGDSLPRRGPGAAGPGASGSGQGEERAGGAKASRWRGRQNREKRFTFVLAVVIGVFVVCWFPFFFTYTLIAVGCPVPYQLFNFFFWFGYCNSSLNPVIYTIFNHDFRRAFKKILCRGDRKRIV

[3] = biological target: T3, Alpha-1A adrenergic receptor (Homo sapiens, UniProt P35348); assay: Agonist activity at alpha-1A adrenergic receptor (unknown origin) after 5 hrs by CCF4-AM staining-based cellular assay
T3 sequence (P35348 whole entry): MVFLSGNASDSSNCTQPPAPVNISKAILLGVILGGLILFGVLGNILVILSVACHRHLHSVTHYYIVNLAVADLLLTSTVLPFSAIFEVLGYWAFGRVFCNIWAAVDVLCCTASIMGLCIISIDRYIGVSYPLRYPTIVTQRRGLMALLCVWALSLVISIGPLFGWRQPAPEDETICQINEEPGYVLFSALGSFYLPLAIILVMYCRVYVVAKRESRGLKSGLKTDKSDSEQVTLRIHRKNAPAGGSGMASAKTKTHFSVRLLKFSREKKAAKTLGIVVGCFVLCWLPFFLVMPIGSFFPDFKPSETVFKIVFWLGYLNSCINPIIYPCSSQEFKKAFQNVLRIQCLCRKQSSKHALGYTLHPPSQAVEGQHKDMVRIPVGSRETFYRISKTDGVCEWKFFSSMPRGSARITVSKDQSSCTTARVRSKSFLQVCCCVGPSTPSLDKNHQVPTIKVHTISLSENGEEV

[4] = biological target: T3, Alpha-1A adrenergic receptor; assay: Antagonist activity at alpha-1A adrenergic receptor (unknown origin) incubated for 30 mins prior to agonist addition measured after 5 hrs by CCF4-AM staining-based cellular assay
[5] = biological target: T4, Alpha-1B adrenergic receptor (Homo sapiens, UniProt P35368); assay: Antagonist activity at alpha-1B adrenergic receptor (unknown origin) incubated for 30 mins prior to agonist addition measured after 5 hrs by CCF4-AM staining-based cellular assay
T4 sequence (P35368 whole entry): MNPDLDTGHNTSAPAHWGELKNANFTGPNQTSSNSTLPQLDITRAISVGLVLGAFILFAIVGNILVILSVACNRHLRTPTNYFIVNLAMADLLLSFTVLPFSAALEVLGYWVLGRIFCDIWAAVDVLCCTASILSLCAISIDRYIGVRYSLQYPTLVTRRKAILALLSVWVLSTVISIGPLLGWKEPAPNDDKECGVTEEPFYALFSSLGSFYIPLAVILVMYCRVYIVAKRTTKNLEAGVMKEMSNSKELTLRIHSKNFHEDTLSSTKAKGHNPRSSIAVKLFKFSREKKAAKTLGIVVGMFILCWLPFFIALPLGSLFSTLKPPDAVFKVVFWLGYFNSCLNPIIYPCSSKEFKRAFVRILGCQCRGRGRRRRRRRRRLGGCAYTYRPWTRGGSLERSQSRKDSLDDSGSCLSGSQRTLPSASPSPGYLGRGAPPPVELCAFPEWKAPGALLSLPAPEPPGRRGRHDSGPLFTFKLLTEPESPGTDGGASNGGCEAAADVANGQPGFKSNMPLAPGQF

[6] = biological target: T5, Adrenergic receptor alpha-1 (Homo sapiens, UniProt P35348+P25100+P35368); assay: Binding affinity to alpha-1 adrenergic receptor (unknown origin)
T5 sequence (P35348 whole entry): T3 sequence (P35348 whole entry)
T5 sequence (P25100 whole entry): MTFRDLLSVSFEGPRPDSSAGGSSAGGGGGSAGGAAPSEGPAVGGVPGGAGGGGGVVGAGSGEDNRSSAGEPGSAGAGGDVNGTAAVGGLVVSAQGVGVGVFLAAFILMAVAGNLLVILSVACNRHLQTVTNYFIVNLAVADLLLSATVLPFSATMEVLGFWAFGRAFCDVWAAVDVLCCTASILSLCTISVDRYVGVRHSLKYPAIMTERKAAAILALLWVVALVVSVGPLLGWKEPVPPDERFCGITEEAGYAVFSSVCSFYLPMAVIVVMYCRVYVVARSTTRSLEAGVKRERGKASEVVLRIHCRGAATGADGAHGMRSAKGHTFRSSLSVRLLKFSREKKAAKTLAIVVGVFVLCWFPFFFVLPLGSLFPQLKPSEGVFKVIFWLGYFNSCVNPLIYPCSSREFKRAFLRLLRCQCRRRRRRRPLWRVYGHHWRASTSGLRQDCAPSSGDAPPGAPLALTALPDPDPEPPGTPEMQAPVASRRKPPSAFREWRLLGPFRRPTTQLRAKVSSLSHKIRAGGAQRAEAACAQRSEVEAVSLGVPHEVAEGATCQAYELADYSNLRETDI
T5 sequence (P35368 whole entry): T4 sequence (P35368 whole entry)

Rattus norvegicus [7] = assay: Hypotensive activity in normotensive anesthetized Wistar rat assessed as reduction of systolic pressure at 1 to 5 mg/kg, iv measured up to 60 mins; type: functional, organism-based
Rattus norvegicus [8] = assay: Hypotensive activity in normotensive anesthetized Wistar rat assessed as reduction of diastolic pressure at 1 to 5 mg/kg, iv measured up to 60 mins; type: functional, organism-based

Row | Structure (SMILES) | pKi [1] | pKi [2] | EC50 [3] | EC50 [4] | EC50 [5] | pKi [6] | Activity (Rattus norvegicus [7]) | Activity (Rattus norvegicus [8]) | EC50 ([4]; read-out: EC50)
1 | Cc1ccccc1N1CCN(CCN2CCCC2=O)CC1.Cl | 6.09 | 5.92 |  |  |  |  |  |  | 
2 | COc1ccc(N2CCN(CCCCN3CCCC3=O)CC2)cc1.Cl | < 5 | < 5 |  |  |  |  |  |  | 
3 | Cl.O=C1CCCN1CCCCN1CCN(C(c2ccccc2)c2ccccc2)CC1 | 6.65 | < 5 | Not Active | Not Active | 289 nM |  |  |  | 
4 | O=C1CCCN1CCN1CCN(c2ccccc2Cl)CC1 |  |  |  |  |  | 7.13 |  |  | 
5 | Cc1ccccc1N1CCN(CCCCN2CCCC2=O)CC1.Cl | 7.14 | 6.05 | Not Active | Not Active | 3.5 nM |  | Active | Active | 
6 | Cl.O=C1CCCN1CCN1CCN(c2ccc(Cl)cc2)CC1 | 5.51 | < 5 |  |  |  |  |  |  | 
7 | Cl.O=C1CCCN1CCCCN1CCN(c2ccc(F)cc2F)CC1 | 6.77 | < 5 | Not Active | Not Active | 46.9 nM |  |  |  | 
8 | Cl.O=C1CCCN1CCCCN1CCN(c2ccccc2Cl)CC1 | 7.3 | 6.01 |  |  | 2.53 nM |  | Active | Active | 138 nM
9 | Cl.O=C1CCCN1CCCCN1CCN(C(c2ccc(F)cc2)c2ccc(F)cc2)CC1 | 7.07 | 5.92 |  |  | 131 nM |  |  |  | 329 nM
10 | Cl.O=C1CCCN1CCN1CCN(C(c2ccc(F)cc2)c2ccc(F)cc2)CC1 | 6.43 | 6.01 |  |  |  |  |  |  | 
11 | Cc1ccccc1N1CCN(CCN2CCCC2=O)CC1 |  |  |  |  |  | 7.05 |  |  | 
12 | COc1ccccc1N1CCN(CCN2CCCC2=O)CC1.Cl | < 5 | < 5 |  |  |  |  |  |  | 
13 | Cl.O=C1CCCN1CCCCN1CCN(c2ccccc2O)CC1 | 6.44 | < 5 | Not Active | Not Active | 165 nM |  |  |  | 
14 | COc1ccc(N2CCN(CCN3CCCC3=O)CC2)cc1.Cl | 5.92 | < 5 |  |  |  |  |  |  | 
